Assay results reported in ChEMBL document CHEMBL6114967, “Design and synthesis of novel sulfur-substituted triptolide with the ability to induce autophagy through inhibition of SRSF1 expression” (Eur J Med Chem, 2025).
Activity calls are given as the source filed them. The rule behind the calls is not given here.

Key:
HGC-27 [1] = assay: Induction of apoptosis in human HGC-27 cells assessed as early apoptotic cells at 1 uM incubated for 48 hrs by annexin V-FITC and PI staining based flow cytometry analysis (reference value: 3.13%); format: functional
HGC-27 [2] = assay: Antiproliferative activity against human HGC-27 cells assessed as inhibition of cell proliferation incubated for 72 hrs by MTT assay; format: functional, cell-based; settings: HGC-27, 72 h
AGS [3] = assay: Induction of autophagy in human AGS cells assessed as upregulation of LC3 I protein level at 0.5 to 2 uM incubated for 48 hrs by Western blotting analysis; format: functional, cell-based; settings: dose 0.5-2 µM
HGC-27 [4] = assay: Upregulation of MAP1LC3B2 mRNA expression in human HGC-27 cells at 2 uM incubated for 24 hrs; format: functional, cell-based
[5] = Toxicity in male BALB/c nude mouse assessed as change in body weight at 25 to 100 mg/kg, ip administered daily and measured after 15 days; format: organism-based; settings: in vivo, 360 h, dose 25-100 mg/kg, time 15 day
B16-F10 = assay: Antiproliferative activity against mouse B16-F10 cells assessed as inhibition of cell proliferation incubated for 72 hrs by MTT assay; format: functional, cell-based; settings: B16-F10, 72 h
AGS [6] = assay: Induction of apoptosis in human AGS cells assessed as late apoptotic cells at 1 uM incubated for 48 hrs by annexin V-FITC and PI staining based flow cytometry analysis (reference value: 3.15%); format: functional
HGC-27 [7] = assay: Antitumor activity against human HGC-27 cells xenografted in male BALB/c nude mouse assessed as tumor growth inhibition at 25 mg/kg, ip administered every day for 15 days relative to control; format: functional; settings: HGC-27, 360 h, time 15 day, read-out: TGI
HGC-27 [8] = assay: Induction of apoptosis in human HGC-27 cells assessed as early apoptotic cells at 0.5 uM incubated for 48 hrs by annexin V-FITC and PI staining based flow cytometry analysis (reference value: 3.13%); format: functional
HGC-27 [9] = assay: Downregulation of Bcl-xl protein level in human HGC-27 cells at 0.5 to 2 uM by Western blotting analysis; format: functional, cell-based; settings: dose 0.5-2 µM
HepG2 = assay: Antiproliferative activity against human HepG2 cells assessed as inhibition of cell proliferation incubated for 72 hrs by MTT assay; format: functional, cell-based; settings: HepG2, 72 h
HGC-27 [10] = assay: Downregulation of SRSF1 mRNA expression in human HGC-27 cells incubated for 24 hrs by SYBR green dye based RT-qPCR analysis; format: functional, cell-based; settings: dose 0.5-2 µM
HGC-27 [11] = assay: Downregulation of SRSF1 mRNA expression in human HGC-27 cells at 2 uM incubated for 24 hrs; format: functional, cell-based
AGS [12] = assay: Induction of apoptosis in human AGS cells assessed as necrotic cells at 2 uM incubated for 48 hrs by annexin V-FITC and PI staining based flow cytometry analysis (reference value: 0.44%); format: functional
HGC-27 [13] = assay: Induction of apoptosis in human HGC-27 cells assessed as viable cells at 2 uM incubated for 48 hrs by annexin V-FITC and PI staining based flow cytometry analysis (reference value: 91.8%); format: functional; settings: read-out: Activity
AGS [14] = assay: Induction of apoptosis in human AGS cells assessed as necrotic cells at 0.5 uM incubated for 48 hrs by annexin V-FITC and PI staining based flow cytometry analysis (reference value: 0.44%); format: functional
[15] = Acute toxicity in male ICR mouse assessed as abnormal hepatocyte morphology at 1 g/Kg, ip measured after 7 days by H and E staining based light microscopic analysis; format: organism-based; settings: in vivo, 1000 mg/kg, 168 h, time 7 day
AGS [16] = assay: Induction of apoptosis in human AGS cells assessed as viable cells at 2 uM incubated for 48 hrs by annexin V-FITC and PI staining based flow cytometry analysis (reference value: 92.0%); format: functional; settings: read-out: Activity
HGC-27 [17] = assay: Induction of autophagy in human HGC-27 cells assessed as increase in LC3 II/LC3 I ratio in tumor tissue at 25 to 100 mg/kg, ip administered daily; format: functional, organism-based; settings: dose 25-100 mg/kg
AGS [18] = assay: Induction of cell cycle arrest in human AGS cells assessed as increase in P21 expression at 0.5 to 2 uM by Western blotting analysis; format: functional, cell-based; settings: dose 0.5-2 µM
AGS [19] = assay: Downregulation of Bcl-xl expression in human AGS cells at 0.5 to 2 uM incubated overnight by Western blotting analysis; format: functional, cell-based; settings: dose 0.5-2 µM
HGC-27 [20] = assay: Induction of autophagy in human HGC-27 cells assessed as decrease in P62 protein level in tumor tissue at 25 to 100 mg/kg, ip administered daily; format: functional, organism-based; settings: dose 25-100 mg/kg
AGS [21] = assay: Induction of cell cycle arrest in human AGS cells assessed as increase in S phase ratio at 0.5 to 2 uM incubated for 24 hrs by staining based flow cytometric analysis ( Rvb = 32.86%); format: functional; settings: dose 0.5-2 µM
HGC-27 [22] = assay: Induction of apoptosis in human HGC-27 cells assessed as necrotic cells at 2 uM incubated for 48 hrs by annexin V-FITC and PI staining based flow cytometry analysis (reference value: 0.062%); format: functional
AGS [23] = assay: Induction of apoptosis in human AGS cells assessed as late apoptotic cells at 0.5 uM incubated for 48 hrs by annexin V-FITC and PI staining based flow cytometry analysis (reference value: 3.15%); format: functional
HGC-27 [24] = assay: Induction of apoptosis in human HGC-27 cells assessed as viable cells at 1 uM incubated for 48 hrs by annexin V-FITC and PI staining based flow cytometry analysis (reference value: 91.8%); format: functional; settings: read-out: Activity
HGC-27 [25] = assay: Induction of autophagy in human HGC-27 cells assessed as upregulation of Beclin1 protein level at 0.5 to 2 uM incubated for 48 hrs by Western blotting analysis; format: functional, cell-based; settings: dose 0.5-2 µM
HGC-27 [26] = assay: Induction of autophagy in human HGC-27 cells assessed as increase in green fluorescent number co-treated with chloroquine at 2 uM incubated for 48 hrs by DAPI staining based immunofluorescence analysis; format: functional, cell-based
HGC-27 [27] = assay: Induction of autophagy in human HGC-27 cells assessed as downregulation of P62 protein level at 0.5 to 2 uM incubated for 48 hrs by Western blotting analysis; format: functional, cell-based; settings: dose 0.5-2 µM
U-251 = assay: Antiproliferative activity against human U-251 cells assessed as inhibition of cell proliferation incubated for 72 hrs by MTT assay; format: functional, cell-based; settings: U-251, 72 h
HGC-27 [28] = assay: Induction of apoptosis in human HGC-27 cells assessed as necrotic cells at 0.5 uM incubated for 48 hrs by annexin V-FITC and PI staining based flow cytometry analysis (reference value: 0.062%); format: functional
[29] = Selectivity index, ratio of IC50 for antiproliferative activity against human LO2 cells to IC50 for antiproliferative activity against human HGC-27 cells; format: toxicity, cell-based; settings: LO2 cells and HGC-27 cells, read-out: Ratio IC50
HGC-27 [30] = assay: Induction of apoptosis in human HGC-27 cells assessed as late apoptotic cells at 0.5 uM incubated for 48 hrs by annexin V-FITC and PI staining based flow cytometry analysis (reference value: 5.02%); format: functional
HCT-116 = assay: Antiproliferative activity against human HCT-116 cells assessed as inhibition of cell proliferation incubated for 72 hrs by MTT assay; format: functional, cell-based; settings: HCT-116, 72 h
AGS [31] = assay: Induction of apoptosis in human AGS cells assessed as early apoptotic cells at 2 uM incubated for 48 hrs by annexin V-FITC and PI staining based flow cytometry analysis (reference value: 4.44%); format: functional

With `CC(C)[C@]12O[C@H]1[C@@H]1O[C@]13[C@]1(O[C@H]1C[C@H]1C4=C(CC[C@@]13C)C(=S)OC4)[C@@H]2O` as the compound, how does the Activity (HGC-27 [1]) read?
The Activity was 6.12%.

What about the IC50 (HGC-27 [2]) of the same compound?
Its IC50 is 330 nM.

And the Activity (AGS [3])?
Its Activity is “Active”.

What about the Activity (HGC-27 [4]) of the same compound?
The Activity was “Active”.

And the Activity [5]?
The Activity was “Non-toxic”.

What about the IC50 (B16-F10) of the same compound?
The IC50 was 330 nM.

And the Activity (AGS [6])?
Its Activity is 17%.

And the inhibition in vivo at 25 mg/kg (HGC-27 [7])?
Its inhibition in vivo at 25 mg/kg is 63.7%.

What about the Activity (HGC-27 [8]) of the same compound?
The Activity was 3.5%.

What about the Activity (HGC-27 [9]) of the same compound?
The Activity was “Active”.

And the IC50 (HepG2)?
Its IC50 is 350 nM.

What about the Activity (HGC-27 [10]) of the same compound?
Its Activity is “Dose-dependent-effect”.

And the Activity (HGC-27 [11])?
The Activity was “Active”.

And the Activity (AGS [12])?
The Activity was 0.82%.

And the viability at 2 µM (HGC-27 [13])?
Its viability at 2 µM is 52%.

And the Activity (AGS [14])?
The Activity was 0.55%.

And the Activity [15]?
The Activity was “Non-toxic”.

What about the viability at 2 µM (AGS [16]) of the same compound?
The viability at 2 µM was 35.9%.

What about the Activity (HGC-27 [17]) of the same compound?
Its Activity is “Active”.

What about the Activity (AGS [18]) of the same compound?
The Activity was “Active”.

And the Activity (AGS [19])?
The Activity was “Active”.

What about the Activity (HGC-27 [20]) of the same compound?
Its Activity is “Active”.

And the Activity (AGS [21])?
The Activity was 52.16%.

What about the Activity (HGC-27 [22]) of the same compound?
Its Activity is 0.16%.

And the Activity (AGS [23])?
The Activity was 7.89%.

And the viability at 1 µM (HGC-27 [24])?
Its viability at 1 µM is 84.5%.

And the Activity (HGC-27 [25])?
Its Activity is “Active”.

What about the Activity (HGC-27 [26]) of the same compound?
Its Activity is “Active”.

What about the Activity (HGC-27 [27]) of the same compound?
Its Activity is “Active”.

What about the IC50 (U-251) of the same compound?
Its IC50 is 1620 nM.

What about the Activity (HGC-27 [28]) of the same compound?
The Activity was 0.13%.

And the selectivity ratio [29]?
The selectivity ratio was 6.56.

And the Activity (HGC-27 [30])?
Its Activity is 10.5%.

And the IC50 (HCT-116)?
The IC50 was 400 nM.

What about the Activity (AGS [31]) of the same compound?
Its Activity is 31.6%.
